In the NIST ThermoML archive (doi:10.1016/j.jct.2006.09.007):
Several values for one entry are separate records, joined by “and”; a condition that tells them apart may be missing. Identical values can stand only once.

Experiment: xn = mol fraction of the nth substance listed
Details: 101.3 kPa, Liquid

Cc1ccc(C)c(C)c1 [1,2,4-trimethylbenzene] + N#Cc1ccccc1
x2 = 0
Details	mass density [kg/m3]
298.15 K	871.56
308.15 K	862.53

Cc1ccccc1C [1,2-dimethylbenzene] + N#Cc1ccccc1
x2 = 0
Details	mass density [kg/m3]
298.15 K	875.55
308.15 K	866.29

Cc1cc(C)cc(C)c1 [1,3,5-trimethylbenzene] + N#Cc1ccccc1
x2 = 0
Details	mass density [kg/m3]
298.15 K	860.9
308.15 K	851.88

Cc1cccc(C)c1 [1,3-dimethylbenzene] + N#Cc1ccccc1
x2 = 0
Details	mass density [kg/m3]
298.15 K	859.68
308.15 K	850.01

Cc1ccc(C)cc1 [1,4-dimethylbenzene] + N#Cc1ccccc1
x2 = 0
Details	mass density [kg/m3]
298.15 K	856.48
308.15 K	846.98

COc1ccccc1 [anisole] + N#Cc1ccccc1
x2 = 0
Details	mass density [kg/m3]
298.15 K	988.98
308.15 K	978.7

N#Cc1ccccc1 [benzonitrile] + CC(C)c1ccccc1
x1 = 1
Details	mass density [kg/m3]
298.15 K	1000.25
308.15 K	990.67

N#Cc1ccccc1 [benzonitrile] + CCc1ccccc1
Details	excess molar heat capacity, 298.15 K [J/K/mol]	mass density, 298.15 K [kg/m3]	mass density, 308.15 K [kg/m3]
x1 = 0.0616	–	870.36	860.67
x1 = 0.0673	–	871.08	861.35
x1 = 0.0699	0.77	–	–
x1 = 0.1221	1.239	–	–
x1 = 0.1384	–	880.39	870.62
x1 = 0.219	1.824	–	–
x1 = 0.2367	–	893.17	883.4
x1 = 0.3021	2.096	–	–
x1 = 0.3478	2.184	–	–
x1 = 0.3726	–	911.19	901.43
x1 = 0.4424	2.181	–	–
x1 = 0.4563	–	922.38	912.65
x1 = 0.4991	–	928.14	918.47
x1 = 0.5151	2.098	–	–
x1 = 0.5903	–	940.59	931
x1 = 0.5925	1.917	–	–
x1 = 0.6379	1.786	–	–
x1 = 0.6935	–	955	945.46
x1 = 0.7404	1.395	–	–
x1 = 0.7801	–	967.39	957.85
x1 = 0.8033	1.119	–	–
x1 = 0.8857	0.666	–	–
x1 = 0.8862	–	983.01	973.45
x1 = 0.947	0.33	–	–
x1 = 0.9502	–	992.6	983.07
x1 = 1	–	1000.25	990.67

N#Cc1ccccc1 [benzonitrile] + COc1ccccc1
mass density [kg/m3]
Details	298.15 K	308.15 K
x1 = 0.0168	989.23	979.02
x1 = 0.0762	990.08	979.91
x1 = 0.1199	990.69	980.57
x1 = 0.2462	992.32	982.29
x1 = 0.3042	993.03	983.06
x1 = 0.3614	993.71	983.73
x1 = 0.5068	995.35	985.48
x1 = 0.5823	996.16	986.31
x1 = 0.6772	997.14	987.35
x1 = 0.7832	998.21	988.45
x1 = 0.9105	999.44	989.77
x1 = 1	1000.25	990.67

N#Cc1ccccc1 [benzonitrile] + Cc1cc(C)cc(C)c1
Details	excess molar heat capacity, 298.15 K [J/K/mol]	mass density, 298.15 K [kg/m3]	mass density, 308.15 K [kg/m3]
x1 = 0.073	–	869.06	860.02
x1 = 0.0754	0.726	–	–
x1 = 0.1029	0.966	–	–
x1 = 0.1412	–	876.92	867.88
x1 = 0.1917	–	882.87	873.78
x1 = 0.2104	1.56	–	–
x1 = 0.283	1.84	–	–
x1 = 0.2955	–	895.5	886.4
x1 = 0.3596	–	903.59	894.43
x1 = 0.381	2.016	–	–
x1 = 0.4531	–	915.84	906.58
x1 = 0.4702	1.987	–	–
x1 = 0.5128	–	923.9	914.75
x1 = 0.5479	1.864	–	–
x1 = 0.6098	–	937.51	928.28
x1 = 0.6441	1.563	–	–
x1 = 0.7005	–	950.89	941.57
x1 = 0.712	1.3	–	–
x1 = 0.7895	–	964.64	955.31
x1 = 0.8092	0.861	–	–
x1 = 0.879	–	979.23	969.79
x1 = 0.9041	0.428	–	–
x1 = 0.9501	0.177	–	–
x1 = 0.9536	–	991.98	982.49
x1 = 1	–	1000.25	990.67

N#Cc1ccccc1 [benzonitrile] + Cc1ccc(C)c(C)c1
Details	excess molar heat capacity, 298.15 K	mass density, 298.15 K [kg/m3]	mass density, 308.15 K [kg/m3]
x1 = 0.0712	–	879.01	–
x1 = 0.0829	0.643 J/K/mol	–	–
x1 = 0.1322	–	885.6	876.48
x1 = 0.1409	0.998 J/K/mol and 0.981 J/K/mol	–	–
x1 = 0.1765	–	890.46	881.29
x1 = 0.2844	1.571 J/K/mol and 1.511 J/K/mol	–	–
x1 = 0.2874	–	902.94	893.72
x1 = 0.3441	–	909.49	900.27
x1 = 0.377	1.621 J/K/mol	–	–
x1 = 0.3967	–	915.71	906.56
x1 = 0.445	–	921.57	912.35
x1 = 0.4558	1.622 J/K/mol	–	–
x1 = 0.5283	–	932.03	922.7
x1 = 0.5359	1.475 J/K/mol	–	–
x1 = 0.5861	–	939.54	930.13
x1 = 0.6329	–	945.69	936.31
x1 = 0.6367	1.241 J/K/mol	–	–
x1 = 0.6879	–	953.12	943.75
x1 = 0.6974	1.021 J/K/mol	–	–
x1 = 0.7772	0.753 J/K/mol	–	–
x1 = 0.7796	–	966.07	956.62
x1 = 0.7804	–	966.21	956.8
x1 = 0.8187	–	971.88	962.37
x1 = 0.9027	–	984.6	975.04
x1 = 0.9039	0.294 J/K/mol	–	–
x1 = 0.9079	–	985.41	975.88
x1 = 0.9431	0.176 J/K/mol	–	–
x1 = 0.9687	–	995.12	–
x1 = 0.9822	–	997.27	–
x1 = 1	–	1000.25	990.67

N#Cc1ccccc1 [benzonitrile] + Cc1ccc(C)cc1
298.15 K, Flow calorimetry
Details	excess molar heat capacity [J/K/mol]
x1 = 0.0349	0.303
x1 = 0.0918	0.681
x1 = 0.2035	1.281
x1 = 0.2559	1.362
x1 = 0.3682	1.534
x1 = 0.4313	1.443
x1 = 0.5014	1.374
x1 = 0.5905	1.132
x1 = 0.6663	0.966
x1 = 0.7646	0.664
x1 = 0.8402	0.453
x1 = 0.9222	0.168
x1 = 0.9776	0.082

mass density [kg/m3]
Details	x1 = 0.1009	x1 = 0.2247	x1 = 0.2938	x1 = 0.4357	x1 = 0.5627	x1 = 0.6605	x1 = 0.7646	x1 = 0.8328	x1 = 0.9439	x1 = 1
298.15 K	869.79	886.32	895.69	915.25	933.25	947.47	963.07	973.55	991.13	1000.25
308.15 K	860.32	876.88	886.28	905.85	923.86	938.07	953.65	964.15	981.68	990.67
